Source: paper PMC8698721, “Exploration of the Structure–Function Relationships of a Novel Frog Skin Secretion-Derived Bioactive Peptide, t-DPH1, through Use of Rational Design, Cationicity Enhancement and In Vitro Studies” (Antibiotics, 2021)
In brackets after ≈: the same amount, converted by molar mass. Where a SMILES comes first, the peptide text is derived from it.

Experiments:
S. aureus (ATCC 6538) = type: cell-based, Staphylococcus aureus; settings: ATCC 6538, 24 h
Description: (§1) To assess the antimicrobial activity of t-DPH1 and its designed analogues, MIC and MBC assays were conducted. Seven microorganism strains were used in the assay: Gram-positive bacteria S. aureus (ATCC 6538), E. faecalis (NCTC 12697) and MRSA (NCTC 12493); Gram-negative bacteria E. coli (ATCC 8739), P. aeruginosa (ATCC 9027) and K. pneumoniae (ATCC 43816); yeast, C. albicans (ATCC 10231).
(§2) For MIC assay, the microorganisms were initially incubated in Mueller-Hinton broth (MHB) (for bacteria) or yeast extract peptone dextrose broth (YPD-B) (for yeast) overnight and sub-cultured to achieve their respective logarithmic growth phases (5 × 10^5 CFU/mL). Then, 99 μL of each microorganism and 1 μL of the tested peptide solution were incubated in a 96-well plate. The final on-plate peptide concentrations were from 1 to 512 μM. Except for the peptide group, four other groups were set when conducting this experiment, including a negative control group (PBS), a vehicle control group (1% DMSO), a positive control group (bacteria: 20 μg/mL norfloxacin; yeast: amphotericin B) and a blank control group (MHB or YPD-B with no microorganism culture). Thus, the MIC value represents the lowest concentration of peptides at which no visible growth of the microorganism after 24 h incubation. For the MBC assay, 10 μL of the medium from each clear well was inoculated onto a Mueller–Hinton agar (MHA) (for bacteria) or yeast extract peptone dextrose agar (YPD-A) (for yeast) plate and incubated for 24 h for measurement MBC values.

[1] = tested on: Enterococcus faecalis (E. faecalis) (NCTC 12697); type: cell-based; settings: NCTC 12697, 24 h
Description: as §1, §2

[2] = tested on: Methicillin-resistant Staphylococcus aureus (MRSA) (NCTC 12493); type: cell-based; settings: NCTC 12493, 24 h
Description: as §1, §2

E. coli (ATCC 8739) = type: cell-based, Escherichia coli; settings: ATCC 8739, 24 h
Description: as §1, §2

[3] = tested on: K. pneumoniae (ATCC 43816); type: cell-based, Klebsiella pneumoniae; settings: ATCC 43816, 24 h
Description: as §1, §2

[4] = tested on: P. aeruginosa (ATCC 9027); type: cell-based, Pseudomonas aeruginosa; settings: ATCC 9027, 24 h
Description: as §1, §2

C. albicans (ATCC 10231) = type: cell-based, Candida albicans; settings: ATCC 10231, 24 h
Description: as §1, §2

[5] = tested on: HMEC-1 (human microvascular endothelial cell line); type: cell-based; settings: 24 h
Description: (§3) The MTT assay was conducted to verify the proliferation inhibitory effect of t-DPH1 and its analogues. Human cancer cell lines (NCI-H838 (ATCC® CRL-5844, human non-small cell lung cancer)), (NCI-H157(ATCC® CRL-5802, human non-small cell lung cancer cell line)), (U251MG (ECACC 09063001, human neuronal glioblastoma cancer cell line)), (PC-3 (ATCC® CRL-1435TM, human prostate carcinoma cancer cell line)) and normal human cell lines (HMEC-1(ATCC®-CRL-3243, human microvascular endothelial cell line)) and (HaCaT (ATCC®-PCS-200-011, human keratinocyte cell)) were purchased from the American Type Culture Collection (ATCC, Manassas, VA, USA) and the European Collection of Cell Cultures (ECACC, Sallisbury, UK) for this assay. For the MTT assay, 8000 cells/per well were seeded in the 96-well plate for 24 h. Subsequently, experiment groups were dosed with fresh serum-free medium containing different concentrations of peptides (100 μM to 10 nM) in 3 replicates. Negative control groups and positive control groups were dosed with the fresh serum-free medium containing equal amounts of PBS, and 0.1% (w/v) Triton X-100, respectively. Then the 96-well plate was incubated at 37 °C with 5% CO2 for 24 h. After, ten microliters of MTT solution (5 mg/mL) (Sigma-Aldrich UK Ltd., Gillingham, UK) were added to each well and incubated in a dark environment for two hours. Then, the solution in each well was removed and 100 μL of DMSO were added and then the plate was shaken for 10 min on a shaking incubator before detecting the OD value by use of a Synergy HT plate reader (BioTek, Minneapolis, MN, USA) at λ = 570 nm.

[6] = tested on: HaCaT (human keratinocyte cell); type: cell-based; settings: 24 h
Description: as §3

[7] = tested on: NCI-H157 (human non-small cell lung cancer cell line); type: cell-based; settings: 24 h
Description: as §3

[8] = tested on: NCI-H838 (human non-small cell lung cancer); type: cell-based; settings: 24 h
Description: as §3

[9] = tested on: PC-3 (human prostate carcinoma cancer cell line); type: cell-based; settings: 24 h
Description: as §3

[10] = tested on: U251MG (human neuronal glioblastoma cancer cell line); type: cell-based; settings: 24 h
Description: as §3

horse red blood cells = type: cell-based; settings: for HC50: red cells of horse
Description: The haemolysis assay was performed by mixing 2% (v/v) fresh defibrinated horse blood (TCS Biosciences Ltd., Buckingham, UK) with peptides in different concentrations. Before the test, horse blood was rinsed with PBS three to four times until the supernatant was clear. Next, peptide solutions (from 100 μM to 1 nM) were incubated with the suspension of red blood cells at 37 °C for two hours. The blood cells treated with 1% Triton-X 100 were used as the positive control, and the blood cells treated with PBS were used as the negative control. After incubation, 100 μL of the supernatant from each sample were transferred to a new 96-well plate, and the OD value of each well was measured with a Synergy HT plate reader (BioTek, Minneapolis, MN, USA) with the absorbance set to 570 nm.

[11] = tested on: PC-3, H838, H157 and U251MG cancer cell lines; type: cell-based, human; settings: 24 h
Description: as §3, with “Then the 96-well plate was incubated at 37 °C with 5% CO2 for 24 h. After, ten microliters of MTT solution (5 mg/mL) (Sigma-Aldrich UK Ltd., Gillingham, UK) were added to each well and incubated in a dark environment for two hours.” left out

Row | MIC (S. aureus (ATCC 6538)) [µM] | MIC [1] [µM] | MIC [2] [µM] | MIC (E. coli (ATCC 8739)) [µM] | MIC [3] [µM] | MIC [4] [µM] | MIC (C. albicans (ATCC 10231)) [µM] | IC50 against HMEC-1 [5] [µM] | IC50 against HaCaT [6] [µM] | IC50 [7] [µM] | IC50 [8] [µM] | IC50 [9] [µM] | IC50 [10] [µM] | Compound | MBC (S. aureus (ATCC 6538)) [µM] | MBC [1] [µM] | MBC [2] [µM] | MBC (E. coli (ATCC 8739)) [µM] | MBC [3] [µM] | MBC [4] [µM] | MBC (C. albicans (ATCC 10231)) [µM] | also measured
1 | 4 (≈ 8.49 µg/mL) | 256 (≈ 543 µg/mL) | 32 (≈ 67.9 µg/mL) | 2 (≈ 4.25 µg/mL) | 4 (≈ 8.49 µg/mL) | 8 (≈ 17 µg/mL) | 64 (≈ 136 µg/mL) | 340.2 | 151.4 | 88.3 | 186 | 55.6 | 594 | CC[C@H](C)[C@H](NC(=O)[C@H](CCCCN)NC(=O)[C@H](CCCCN)NC(=O)[C@H](Cc1c[nH]c2ccccc12)NC(=O)[C@H](CC(C)C)NC(=O)CN)C(=O)N[C@@H](CCCCN)C(=O)N[C@@H](CC(N)=O)C(=O)N[C@H](C(=O)N[C@@H](C)C(=O)N[C@@H](CCCCN)C(=O)N[C@@H](C)C(=O)N[C@@H](C)C(=O)NCC(=O)N[C@@H](CCCCN)C(=O)N[C@@H](C)C(=O)N[C@@H](C)C(=O)N[C@@H](CCCCN)C(=O)NCC(=O)N[C@@H](C)C(=O)N[C@@H](CC(C)C)C(N)=O)C(C)C [t-DPH1-6K] (H-GLWKKIKNVAKAAGKAAKGAL-NH2) | 8 (≈ 17 µg/mL) | 512 (≈ 1090 µg/mL) | 64 (≈ 136 µg/mL) | 4 (≈ 8.49 µg/mL) | 8 (≈ 17 µg/mL) | 16 (≈ 34 µg/mL) | 128 (≈ 272 µg/mL) | HC50 (horse red blood cells): 834.6 µM
2 | 2 (≈ 4.1 µg/mL) | 32 (≈ 65.6 µg/mL) | 2 (≈ 4.1 µg/mL) | 1 (≈ 2.05 µg/mL) | 2 (≈ 4.1 µg/mL) | 8 (≈ 16.4 µg/mL) | 32 (≈ 65.6 µg/mL) | 46.02 | 63.37 | 6.14 | 10.1 | 19 | 32.2 | CC[C@H](C)[C@H](NC(=O)[C@H](CCCCN)NC(=O)[C@H](CCCCN)NC(=O)[C@H](Cc1c[nH]c2ccccc12)NC(=O)[C@H](CC(C)C)NC(=O)CN)C(=O)N[C@@H](CCCCN)C(=O)N[C@@H](CC(N)=O)C(=O)N[C@H](C(=O)N[C@@H](C)C(=O)N[C@@H](C)C(=O)N[C@@H](C)C(=O)N[C@@H](C)C(=O)NCC(=O)N[C@@H](CCCCN)C(=O)N[C@@H](C)C(=O)N[C@@H](C)C(=O)N[C@@H](CC(C)C)C(=O)NCC(=O)N[C@@H](C)C(=O)N[C@@H](CC(C)C)C(N)=O)C(C)C [t-DPH1-K4] (H-GLWKKIKNVAAAAGKAALGAL-NH2) | 4 (≈ 8.2 µg/mL) | 32 (≈ 65.6 µg/mL) | 4 (≈ 8.2 µg/mL) | 2 (≈ 4.1 µg/mL) | 4 (≈ 8.2 µg/mL) | 16 (≈ 32.8 µg/mL) | 64 (≈ 131 µg/mL) | HC50 (horse red blood cells): 444.8 µM
3 | 8 (≈ 16.1 µg/mL) | 128 (≈ 257 µg/mL) | 16 (≈ 32.2 µg/mL) | 2 (≈ 4.02 µg/mL) | 8 (≈ 16.1 µg/mL) | 16 (≈ 32.2 µg/mL) | 64 (≈ 129 µg/mL) | 29.85 | 175.6 | 10.2 | 23.5 | 14.7 | 34.2 | CC[C@H](C)[C@H](NC(=O)[C@H](CCCCN)NC(=O)[C@H](CO)NC(=O)[C@H](Cc1c[nH]c2ccccc12)NC(=O)[C@H](CC(C)C)NC(=O)CN)C(=O)N[C@@H](CCCCN)C(=O)N[C@@H](CC(N)=O)C(=O)N[C@H](C(=O)N[C@@H](C)C(=O)N[C@@H](C)C(=O)N[C@@H](C)C(=O)N[C@@H](C)C(=O)NCC(=O)N[C@@H](CCCCN)C(=O)N[C@@H](C)C(=O)N[C@@H](C)C(=O)N[C@@H](CC(C)C)C(=O)NCC(=O)N[C@@H](C)C(=O)N[C@@H](CC(C)C)C(N)=O)C(C)C [t-DPH1] (H-GLWSKIKNVAAAAGKAALGAL-NH2) | 16 (≈ 32.2 µg/mL) | 256 (≈ 514 µg/mL) | 32 (≈ 64.3 µg/mL) | 4 (≈ 8.04 µg/mL) | 16 (≈ 32.2 µg/mL) | 32 (≈ 64.3 µg/mL) | 128 (≈ 257 µg/mL) | haemolysis (horse red blood cells; 100 µM): over 50%; HC50 (horse red blood cells): 106.4 µM; IC50 [11]: 10.2 to 34.2 µM
